± gives the expanded uncertainty stated by the source.
Assay: Molar enthalpy of transition or fusion
Conditions: Crystal; DSC

Molar enthalpy of transition or fusion: 7.33 ± 0.239 kcal/mol
SMILES: O=C1/C(=C/c2ccc(Cl)cc2)CCc2ccccc21

Reference: the NIST ThermoML archive (doi:10.1016/j.jct.2014.03.026)
